ChEMBL document CHEMBL3259601, “Synthesis of novel 1,2,3-triazole substituted-N-alkyl/aryl nitrone derivatives, their anti-inflammatory and anticancer activity” (Eur J Med Chem, 2014)

Tests used:
[1] = Antiinflammatory activity in human THP1 cells assessed as inhibition of PMA-induced IL-1beta secretion preincubated for 2 hrs followed by PMA challenge measured after 48 hrs by ELISA; format: functional, cell-based; details: THP-1
[2] = test system: THP-1; experiment: Cytotoxicity against human THP1 cells assessed as effect on cell viability at 20 uM after 48 hrs by trypan blue exclusion assay; format: cell-based; details: thp-1, 48 h
[3] = test system: PC-3; experiment: Cytotoxicity against human PC3 cells assessed as growth inhibition after 24 hrs by MTT assay; format: functional, cell-based; details: PC-3, 24 h
[4] = test system: COLO 205; experiment: Cytotoxicity against human COLO205 cells assessed as growth inhibition after 24 hrs by MTT assay; format: functional, cell-based; details: COLO 205, 24 h
[5] = test system: MDA-MB-231; experiment: Cytotoxicity against human MDA-MB-231 cells assessed as growth inhibition after 24 hrs by MTT assay; format: functional, cell-based; details: MDA-MB-231, 24 h
[6] = test system: A549; experiment: Cytotoxicity against human A549 cells assessed as growth inhibition after 24 hrs by MTT assay; format: functional, cell-based; details: A549, 24 h
[7] = test system: PC-3; experiment: Induction of apoptosis in human PC3 cells assessed as activation of caspase-3 using AFC conjugated Ac-DEVD as substrate measured per mg of protein at 10 uM after 12 hrs by fluorescence assay (reference value: 1055.6 +/- 108.2 FU/min); format: functional
[8] = test system: PC-3; experiment: Induction of apoptosis in human PC3 cells assessed as activation of caspase-3 using AFC conjugated Ac-DEVD as substrate measured per mg of protein at 8 uM after 24 hrs by fluorescence assay (reference value: 2115.3 +/- 83.2 FU/min); format: functional
[9] = test system: PC-3; experiment: Induction of apoptosis in human PC3 cells assessed as activation of caspase-3 using AFC conjugated Ac-DEVD as substrate measured per mg of protein at 10 uM after 36 hrs by fluorescence assay (reference value: 2192.3 +/- 115.9 FU/min); format: functional
[10] = test system: PC-3; experiment: Induction of apoptosis in human PC3 cells assessed as activation of caspase-3 using AFC conjugated Ac-DEVD as substrate measured per mg of protein at 10 uM after 48 hrs by fluorescence assay (reference value: 2642.4 +/- 37.5 FU/min); format: functional
[11] = test system: PC-3; experiment: Induction of apoptosis in human PC3 cells assessed as activation of caspase-3 using AFC conjugated Ac-DEVD as substrate measured per mg of protein at 8 uM after 12 hrs by fluorescence assay (reference value: 1055.6 +/- 108.2 FU/min); format: functional
[12] = test system: PC-3; experiment: Induction of apoptosis in human PC3 cells assessed as activation of caspase-3 using AFC conjugated Ac-DEVD as substrate measured per mg of protein at 8 uM after 48 hrs by fluorescence assay (reference value: 2642.4 +/- 37.5 FU/min); format: functional
[13] = test system: PC-3; experiment: Induction of apoptosis in human PC3 cells assessed as activation of caspase-3 using AFC conjugated Ac-DEVD as substrate measured per mg of protein at 10 uM after 24 hrs by fluorescence assay (reference value: 2115.3 +/- 83.2 FU/min); format: functional
[14] = test system: PC-3; experiment: Induction of apoptosis in human PC3 cells assessed as activation of caspase-3 using AFC conjugated Ac-DEVD as substrate measured per mg of protein at 8 uM after 36 hrs by fluorescence assay (reference value: 2192.3 +/- 115.9 FU/min); format: functional
[15] = test system: PC-3; experiment: Induction of apoptosis in human PC3 cells assessed as activation of caspase-3 using AFC conjugated Ac-DEVD as substrate measured per mg of protein at 1 uM after 12 hrs by fluorescence assay (reference value: 1055.6 +/- 108.2 FU/min); format: functional
[16] = test system: PC-3; experiment: Induction of apoptosis in human PC3 cells assessed as activation of caspase-3 using AFC conjugated Ac-DEVD as substrate measured per mg of protein measured per mg of protein at 2 uM after 24 hrs by fluorescence assay (reference value: 2115.3 +/- 83.2 FU/min); format: functional
[17] = test system: PC-3; experiment: Induction of apoptosis in human PC3 cells assessed as activation of caspase-3 using AFC conjugated Ac-DEVD as substrate measured per mg of protein at 2 uM after 12 hrs by fluorescence assay (reference value: 1055.6 +/- 108.2 FU/min); format: functional
[18] = test system: PC-3; experiment: Induction of apoptosis in human PC3 cells assessed as activation of caspase-3 using AFC conjugated Ac-DEVD as substrate measured per mg of protein at 2 uM after 36 hrs by fluorescence assay (reference value: 2192.3 +/- 115.9 FU/min); format: functional
[19] = test system: PC-3; experiment: Induction of apoptosis in human PC3 cells assessed as activation of caspase-3 using AFC conjugated Ac-DEVD as substrate measured per mg of protein at 1 uM after 36 hrs by fluorescence assay (reference value: 2192.3 +/- 115.9 FU/min); format: functional
[20] = test system: PC-3; experiment: Induction of apoptosis in human PC3 cells assessed as activation of caspase-3 using AFC conjugated Ac-DEVD as substrate measured per mg of protein at 1 uM after 24 hrs by fluorescence assay (reference value: 2115.3 +/- 83.2 FU/min); format: functional
[21] = test system: PC-3; experiment: Induction of apoptosis in human PC3 cells assessed as activation of caspase-3 using AFC conjugated Ac-DEVD as substrate measured per mg of protein at 1 uM after 48 hrs by fluorescence assay (reference value: 2642.4 +/- 37.5 FU/min); format: functional
[22] = test system: PC-3; experiment: Induction of apoptosis in human PC3 cells assessed as activation of caspase-3 using AFC conjugated Ac-DEVD as substrate measured per mg of protein at 2 uM after 48 hrs by fluorescence assay (reference value: 2642.4 +/- 37.5 FU/min); format: functional

| IC50 [1] | SMILES | Activity [2] | IC50 [3] | IC50 [4] | IC50 [5] | IC50 [6] | further results |
| --- | --- | --- | --- | --- | --- | --- | --- |
| 8.8 µM | [O-]/[N+](=C\c1cn(-c2ccccc2)nn1)c1ccccc1 | Non-toxic | > 100 µM | > 100 µM | > 100 µM | > 100 µM | – |
| > 20 µM | [O-]/[N+](=C\c1cn(-c2ccc(F)cc2)nn1)c1ccccc1 | Non-toxic | 11.4 µM | 10.2 µM | 9.8 µM | 12.5 µM | – |
| > 20 µM | [O-]/[N+](=C\c1cn(-c2ccc(Cl)cc2)nn1)c1ccccc1 | Non-toxic | 11.1 µM | 9.7 µM | 8.9 µM | 10.5 µM | – |
| 9.9 µM | CCCCCCCCCCn1cc(/C=[N+](\[O-])c2ccccc2)nn1 | Non-toxic | > 100 µM | > 100 µM | > 100 µM | > 100 µM | – |
| 11.7 µM | [O-]/[N+](=C\c1cn(CCC(F)(F)C(F)(F)C(F)(F)C(F)(F)C(F)(F)C(F)(F)C(F)(F)C(F)(F)F)nn1)c1ccccc1 | Non-toxic | – | > 100 µM | > 100 µM | 86.8 µM | – |
| 8 µM | [O-]/[N+](=C\c1cn(-c2ccccc2)nn1)Cc1ccccc1 | Non-toxic | – | > 100 µM | > 100 µM | > 100 µM | – |
| 9.7 µM | [O-]/[N+](=C\c1cn(-c2ccc(F)cc2)nn1)Cc1ccccc1 | Non-toxic | > 100 µM | > 100 µM | > 100 µM | > 100 µM | – |
| 17.3 µM | COc1ccc(-n2cc(/C=[N+](\[O-])Cc3ccccc3)nn2)cc1 | Non-toxic | > 100 µM | > 100 µM | > 100 µM | > 100 µM | – |
| 15.4 µM | [O-]/[N+](=C\c1cn(-c2ccc(C(F)(F)F)cc2)nn1)Cc1ccccc1 | Non-toxic | > 100 µM | > 100 µM | > 100 µM | > 100 µM | – |
| 13.1 µM | CCCCCCCCn1cc(/C=[N+](\[O-])Cc2ccccc2)nn1 | Non-toxic | > 100 µM | > 100 µM | > 100 µM | > 100 µM | – |
| 15.6 µM | CCCCCCCCCCn1cc(/C=[N+](\[O-])Cc2ccccc2)nn1 | Non-toxic | > 100 µM | > 100 µM | > 100 µM | > 100 µM | – |
| 12.1 µM | [O-]/[N+](=C\c1cn(CCC(F)(F)C(F)(F)C(F)(F)C(F)(F)C(F)(F)C(F)(F)F)nn1)Cc1ccccc1 | Non-toxic | > 100 µM | > 100 µM | > 100 µM | > 100 µM | – |
| 17 µM | [O-]/[N+](=C\c1cn(CCC(F)(F)C(F)(F)C(F)(F)C(F)(F)C(F)(F)C(F)(F)C(F)(F)C(F)(F)F)nn1)Cc1ccccc1 | Non-toxic | 8.1 µM | 9.4 µM | 8.4 µM | 8.8 µM | Activity [7]: 2541.4 FU/min; Activity [8]: 3148.5 FU/min; Activity [9]: 4082.5 FU/min; Activity [10]: 4700.5 FU/min; Activity [11]: 2473.2 FU/min; Activity [12]: 4280.8 FU/min; Activity [13]: 3802.2 FU/min; Activity [14]: 3396.8 FU/min |
| > 20 µM | CC(C)(C)/[N+]([O-])=C/c1cn(-c2ccccc2)nn1 | Non-toxic | 15.4 µM | 15.2 µM | 14.8 µM | 17.4 µM | – |
| 14 µM | CC(C)(C)/[N+]([O-])=C/c1cn(-c2ccc(F)cc2)nn1 | Non-toxic | 72.1 µM | 58.9 µM | 66.4 µM | 87 µM | – |
| 13.5 µM | COc1ccc(-n2cc(/C=[N+](\[O-])C(C)(C)C)nn2)cc1 | Non-toxic | 23.8 µM | 19.8 µM | 23.1 µM | 23.7 µM | – |
| 14.4 µM | CC(C)(C)/[N+]([O-])=C/c1cn(-c2ccc(C(F)(F)F)cc2)nn1 | Non-toxic | 42 µM | 44.7 µM | 48.2 µM | 43.6 µM | – |
| 7.9 µM | CCCCCCCCn1cc(/C=[N+](\[O-])C(C)(C)C)nn1 | Non-toxic | 24.6 µM | 30.8 µM | 29.7 µM | 31.3 µM | – |
| 20 µM | CCCCCCCCCCn1cc(/C=[N+](\[O-])C(C)(C)C)nn1 | Non-toxic | 19.8 µM | 22.1 µM | 20.8 µM | 24.8 µM | – |
| 8.1 µM | CC(C)(C)/[N+]([O-])=C/c1cn(CCC(F)(F)C(F)(F)C(F)(F)C(F)(F)C(F)(F)C(F)(F)F)nn1 | Non-toxic | 11.2 µM | 9.5 µM | 9.8 µM | 11.5 µM | – |
| 15 µM | CC(C)(C)/[N+]([O-])=C/c1cn(CCC(F)(F)C(F)(F)C(F)(F)C(F)(F)C(F)(F)C(F)(F)C(F)(F)C(F)(F)F)nn1 | Non-toxic | 25.7 µM | 28.8 µM | 29.7 µM | 30.5 µM | – |
| – | COc1cccc2c1C(=O)c1c(O)c3c(c(O)c1C2=O)C[C@@](O)(C(=O)CO)C[C@@H]3O[C@H]1C[C@H](N)[C@H](O)[C@H](C)O1 [DOXORUBICIN] | – | 0.6 µM | – | – | – | Activity [15]: 3033.7 FU/min; Activity [16]: 4007.5 FU/min; Activity [17]: 3331.1 FU/min; Activity [18]: 4994.1 FU/min; Activity [19]: 4794.2 FU/min; Activity [20]: 3791.8 FU/min; Activity [21]: 6690.3 FU/min; Activity [22]: 7240.4 FU/min |
| 18 µM | CN1C(C(=O)Nc2ccccn2)=C(O)c2ccccc2S1(=O)=O [PIROXICAM] | – | – | – | – | – | – |
